# Source: the supplement of paper PMC10331698
# ± gives the standard deviation of the averaged measurements.
# Columns and labels:
# Experiment in all cases: level (log10 ratio to DMSO vehicle control); higher = higher biomarker level / cell amount than vehicle control
# [1] = compound: FC(F)(F)C(F)(F)C(F)(F)CC1CO1 [1H,1H-Heptafluorobutyl epoxide]; details: in DMSO
# Description: (§1)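 BioMAP Diversity Plus panel of 12 human primary cell co-culture systems (3C, 4H, LPS, SAg, BT, BF4T, BE3C, CASM3C, HDF3CGF, KF3CT, MyoF, Mphg). Compounds were added 1 h before stimulation and left for 24 h (MyoF 48 h; BT 72 h for soluble read-outs or 6 d for IgG). Biomarkers were read by ELISA, cytotoxicity by SRB, PBMC viability and proliferation by Alamar Blue. Each well value was divided by the mean of 8 DMSO control wells on the same plate and log10 transformed; duplicate blinded samples were tested at 4 concentrations.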
# [2] = compound: FC(F)(F)C(F)(F)C(F)(F)C(F)(F)C(F)(F)C(F)(F)C(F)(F)I [1-Iodopentadecafluoroheptane]; details: in DMSO
# Description: as §1
# [3] = compound: C=C(C)C(=O)OCCC(F)(F)C(F)(F)C(F)(F)C(F)(F)C(F)(F)C(F)(F)F [6:2 Fluorotelomer methacrylate]; details: in DMSO
# Description: as §1
# [4] = compound: NS(=O)(=O)C(F)(F)C(F)(F)C(F)(F)C(F)(F)C(F)(F)C(F)(F)F [Perfluorohexanesulfonamide]; details: in DMSO
# Description: as §1
# [5] = compound: C=CC(=O)OCC(F)(F)C(F)(F)C(F)(F)COC(=O)C=C [1H,1H,5H,5H-Perfluoro-1,5-pentanediol diacrylate]; details: 6700 nM; in DMSO
# Description: as §1
# [6] = compound: O=S(=O)(O)CCC(F)(F)C(F)(F)C(F)(F)C(F)(F)C(F)(F)C(F)(F)F [6:2 Fluorotelomer sulfonic acid]; details: in DMSO
# Description: as §1
Test System,level (log10) ([1]; 6700 nM),level (log10) ([1]; 20000 nM),level (log10) ([1]; 60000 nM),level (log10) ([2]; 6700 nM),level (log10) ([2]; 20000 nM),level (log10) ([3]; 6700 nM),level (log10) ([3]; 20000 nM),level (log10) ([3]; 60000 nM),level (log10) ([4]; 6700 nM),level (log10) ([4]; 20000 nM),level (log10) ([4]; 60000 nM),level (log10) [5],level (log10) ([6]; 6700 nM),level (log10) ([6]; 20000 nM),level (log10) ([6]; 60000 nM)
HDF3CGF:CXCL8/IL-8,-0.0075 ± 0.022,-0.0115 ± 0.0078,0.0005 ± 0.0078,-0.0055 ± 0.00071,-0.001,0.007 ± 0.018,0.0045 ± 0.015,0.0035 ± 0.011,0.0015 ± 0.0021,0.0035 ± 0.0021,0.017 ± 0.013,-1.07 ± 0.012,-0.01 ± 0.014,-0.007 ± 0.013,0.008 ± 0.037
HDF3CGF:CXCL10/IP-10,-0.0275 ± 0.0078,-0.0285 ± 0.053,-0.054 ± 0.054,0.0025 ± 0.0021,-0.026 ± 0.0071,-0.0075 ± 0.016,-0.019 ± 0.021,-0.0225 ± 0.026,-0.02 ± 0.037,-0.059 ± 0.037,-0.185 ± 0.069,-0.821 ± 0.0057,-0.0075 ± 0.018,-0.046 ± 0.021,-0.0325 ± 0.042
HDF3CGF:CXCL11/I-TAC,-0.0165 ± 0.063,-0.016 ± 0.093,-0.0255 ± 0.11,-0.019 ± 0.0057,-0.0405 ± 0.0092,-0.022 ± 0.021,-0.014 ± 0.0014,-0.018 ± 0.013,0.0075 ± 0.018,-0.028 ± 0.011,-0.189 ± 0.033,-0.41 ± 0.045,-0.0445 ± 0.1,-0.0605 ± 0.088,-0.0885 ± 0.091
HDF3CGF:Collagen I,-0.0105 ± 0.029,0.0175 ± 0.023,-0.013 ± 0.028,0.017 ± 0.033,-0.005 ± 0.017,-0.0655 ± 0.022,-0.0695 ± 0.049,0.0095 ± 0.097,0.005 ± 0.035,0.0075 ± 0.011,-0.0435 ± 0.015,0.117 ± 0.0085,-0.031 ± 0.095,-0.007 ± 0.086,0.056 ± 0.11
HDF3CGF:Collagen III,-0.0355 ± 0.1,-0.0515 ± 0.1,-0.0555 ± 0.1,-0.024 ± 0.014,-0.023 ± 0.028,-0.0285 ± 0.044,-0.007 ± 0.041,0.003 ± 0.052,0.0055 ± 0.022,0.0305 ± 0.011,-0.1 ± 0.018,-0.177 ± 0.015,-0.0555 ± 0.015,-0.0115 ± 0.019,0.03 ± 0.093
HDF3CGF:EGFR,-0.004 ± 0.014,-0.004 ± 0.0028,0.023 ± 0.047,0.011 ± 0.02,0.0135 ± 0.042,0.004 ± 0.0071,0.0275 ± 0.028,0.0155 ± 0.0092,0.0525 ± 0.0064,0.043 ± 0.024,-0.103 ± 0.059,-0.016 ± 0.025,-0.0455 ± 0.022,-0.0535 ± 0.025,-0.0305 ± 0.029
HDF3CGF:M-CSF,-0.017 ± 0.064,-0.029 ± 0.044,-0.0245 ± 0.0092,-0.0165 ± 0.018,-0.0165 ± 0.0064,-0.02 ± 0.0057,-0.022 ± 0.0099,-0.029 ± 0.0028,0.0285 ± 0.037,0.0395 ± 0.035,-0.065 ± 0.038,-0.482 ± 0.027,-0.0255 ± 0.073,-0.044 ± 0.068,-0.082 ± 0.085
HDF3CGF:MMP-1,0.0265 ± 0.012,0.028 ± 0.0099,0.0355 ± 0.0035,-0.0105 ± 0.0021,-0.0285 ± 0.018,0.023 ± 0.0085,0.031 ± 0.0028,0.039 ± 0.0057,0.0145 ± 0.0064,0.0155 ± 0.0035,-0.0185 ± 0.028,-0.3945 ± 0.00071,-0.015 ± 0.027,-0.039 ± 0.03,-0.036 ± 0.064
HDF3CGF:PAI-I,-0.0135 ± 0.0035,-0.0175 ± 0.0064,0.009 ± 0.025,-0.044 ± 0.0071,-0.064 ± 0.023,-0.0695 ± 0.083,-0.057 ± 0.064,-0.0415 ± 0.057,-0.0075 ± 0.083,0.081 ± 0.0071,-0.0365 ± 0.037,-0.85 ± 0.033,0.005 ± 0.0042,-0.0015 ± 0.0035,-0.01 ± 0.011
HDF3CGF:Proliferation 72hr,-0.0905 ± 0.044,-0.0925 ± 0.047,-0.0225 ± 0.13,-0.0275 ± 0.005,-0.135 ± 0.02,-0.0385 ± 0.035,-0.0525 ± 0.015,-0.0545 ± 0.0021,0.058 ± 0.03,0.0595 ± 0.0078,-0.267 ± 0.028,-0.689 ± 0.0099,0.0015 ± 0.019,0.0725 ± 0.03,0.0405 ± 0.036
